Source: publication PMC7383964 (Chemmedchem, 2020)

How the values were obtained:
in vitro = conditions: male, Sprague-Dawley, rat, microsomes, pH 7.4
[1] = rat, microsomes
HEK293T cells = conditions: human

SMILES | half-life (in vitro) [h] | Intrinsic clearance [1] [µL/min/mg] | Cell density relative to the effect of vehicle (DMSO) (HEK293T cells) [%]
O=C(/N=N/c1ccc(F)cc1)N1CCCCC1 [Compound 18, (E)‐((4‐Fluorophenyl)diazenyl)(piperidin‐1‐yl)methanone] | 1.22 ± 0.2 | 97 ± 15 | 
C=CCN1CC[C@]23c4c5ccc(O)c4O[C@H]2C(=O)CC[C@@]3(O)[C@H]1C5 [naloxone] |  |  | 84±5
O=C(/C=C/c1ccc(F)cc1)N1CCCCC1 [Compound 19, (E)‐3‐(4‐Fluorophenyl)‐1‐(piperidin‐1‐yl)prop‐2‐en‐1‐one] | 1.42 ± 0.3 | 85 ± 20 | 
